Measured values as given in patent US6596772B1, “Phosphate mimics and methods of treatment using phosphatase inhibitors” (Sugen, Inc., priority 1999, dated 2003).
Where two headings read alike, the source gives them in different places.

Assays:
Experiment in all cases: PTP IC50 assay, pNPP or FDP as substrate
Type in all cases: biochemical
PTP MU = molecular target: T1, PTP MU (Homo sapiens, UniProt P28827)
T1 construct: made in house; host or cells: E. coli BL-21 (pGEX 6P-1)
Description: (§1) The following in vitro assay procedure is preferred to determine the level of activity and effect of the different compounds of the present invention on one or more of the PTPs. Similar assays can be designed along the same lines for any PTP using techniques well known in the art.
(§2) The catalytic assays described herein are performed in a 96-well format. The general procedure begins with the determination of PTP optimal pH using a three-component buffer system that minimizes ionic strength variations across a wide range of buffer pH. Next, the Michaelis-Menten constant, or Km, is determined for each specific substrate-PTP system. This Km value is subsequently used as the substrate reaction concentration for compound screening. Finally, the test PTP is exposed to varying concentrations of compound for fifteen minutes and allowed to react with substrate for ten minutes. The results are plotted as percent inhibition versus compound concentration and the IC50 interpolated from the plot.
(§3) All assays were performed using pNPP or FDP as substrate. The optimum pH was determined for each PTP used.
(§4) PTPase activity was assayed at 25° C. in a 100-μl reaction mixture containing an appropriate concentration of pNPP or FDP as substrate. The reaction was initiated by addition of the PTP and quenched after 10 min by addition of 50 μl of IN NaOH. The non-enzymatic hydrolysis of the substrate was corrected by measuring the control without the addition of the enzyme. The amount of p-nitrophenol produced was determined from the absorbance at 410 nm. To determine the kinetic parameter, Km, the initial velocities were measured at various substrate concentrations and the data were fitted to the Michaelis equation where velocity=(Vmax*[S])/(Km+[S]), and [S]=substrate reaction concentration.
(§5) The effect of the compounds on PTP was evaluated at 25° C. using pNPP or FDP as substrate. PTP was pre-incubated for fifteen minutes with various concentrations of compound. Substrate was then added at a fixed concentration (usually equal to the Km previously calculated). After 10 minutes, NaOH was added to stop the reaction. The hydrolysis of pNPP was followed at 410 nm on the Biotek Powerwave 200 microplate scanning spectrophotometer. The percent inhibition was calculated as follows: Percent Inhibition=[(control signal−compound signal)/control signal] ×100%. The IC50 was then determined by interpolation of a percent inhibition versus compound concentration plot.
(§6) Plasmids designed for bacterial GST-PTP fusion protein expression were derived by insertion of PCR-generated human PTP fragments into pGEX vectors (Pharmacia Biotech). Several of these constructs were then used to subclone phosphatases into pFastBac-1for expression in Sf-9 insect cells. Oligonucleotides used for the initial amplification of PTP genes are shown below. The cDNAs were prepared using the Gilbo BRL superscript preamplification system on RNAs purchased from Clontech.
The PTP Mu cDNA was amplified from a human lung cDNA library (Clontech) using the following oligonucleotides; 5′oligo: 5′-[…]-3′ (SEQ ID NO: 18) 3′oligo: 5′-[…]-3′ (SEQ ID NO: 19) It was subsequently ligated into the Eco RI/Xho I sites of pGEX 6P-1.

PTP BETA = molecular target: T2, PTP BETA (Homo sapiens, UniProt P23467)
T2 construct: The catalytic domain was amplified using the following oligonucleotides; made in house; host or cells: E. coli BL-21 (pGEX 6P-1)
T2 sequence (P23467 1653-1997): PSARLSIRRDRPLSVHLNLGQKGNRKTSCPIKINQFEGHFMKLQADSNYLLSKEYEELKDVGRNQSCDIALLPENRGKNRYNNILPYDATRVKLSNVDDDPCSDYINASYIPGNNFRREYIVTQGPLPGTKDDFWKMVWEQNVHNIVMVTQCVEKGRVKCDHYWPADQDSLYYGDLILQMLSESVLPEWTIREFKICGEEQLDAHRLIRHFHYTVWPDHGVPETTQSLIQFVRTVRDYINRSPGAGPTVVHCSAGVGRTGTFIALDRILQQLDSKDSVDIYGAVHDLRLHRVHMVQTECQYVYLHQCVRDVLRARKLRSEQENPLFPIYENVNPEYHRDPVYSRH
Description: as §1, §2, §3, §4, §5, §6
The PTP Beta cDNA used has been described earlier (Levy et al., 1993, J. Biol. Chem, 268:10573-10581). The catalytic domain was amplified using the following oligonucleotides: 5′oligo: 5′-[…]-3′ (SEQ ID NO: 16) 3′oligo: 5′-[…]-3′ (SEQ ID NO: 17) and subsequently cloned into the Eco RI/Xho I sites of pGEX 6P-1.

PTP SHP2 = molecular target: T3, PTP SHP2 (Homo sapiens, UniProt Q06124)
T3 construct: The catalytic domain was amplified using the following oligonucleotides; made in house; host or cells: Sf-9 insect cells (pFastBac-G2T)
T3 sequence (Q06124 247-517 limits assumed): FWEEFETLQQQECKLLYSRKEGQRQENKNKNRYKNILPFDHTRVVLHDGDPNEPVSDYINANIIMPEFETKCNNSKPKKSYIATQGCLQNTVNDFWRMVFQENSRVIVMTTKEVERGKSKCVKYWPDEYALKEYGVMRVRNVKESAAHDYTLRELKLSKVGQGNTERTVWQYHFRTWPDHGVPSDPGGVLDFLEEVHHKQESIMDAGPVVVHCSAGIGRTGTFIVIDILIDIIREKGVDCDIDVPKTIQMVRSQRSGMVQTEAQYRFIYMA
Description: as §1, §2, §3, §4, §5, §6
SHP-2 cDNA was used as described earlier (Vogel W., et al.,1993, Science, 259:1611-4). The catalytic domain was amplified using the following oligonucleotides 5′oligo: 5′-[…]-3′ (SEQ ID NO: 2) 3′oligo: 5′-[…]-3′ (SEQ ID NO: 3) and subsequently subcloned into BamH1-Xba-1 sites. It was then ligated into pfas Bac-G2T BamH1-Xba-1 sites.

PTP SIGMA = molecular target: T4, PTP SIGMA (Homo sapiens, UniProt Q13332)
T4 construct: made in house; host or cells: E. coli BL-21 (pGEX 6P-1)
T4 sequence (Q13332 1320-1660 limits assumed): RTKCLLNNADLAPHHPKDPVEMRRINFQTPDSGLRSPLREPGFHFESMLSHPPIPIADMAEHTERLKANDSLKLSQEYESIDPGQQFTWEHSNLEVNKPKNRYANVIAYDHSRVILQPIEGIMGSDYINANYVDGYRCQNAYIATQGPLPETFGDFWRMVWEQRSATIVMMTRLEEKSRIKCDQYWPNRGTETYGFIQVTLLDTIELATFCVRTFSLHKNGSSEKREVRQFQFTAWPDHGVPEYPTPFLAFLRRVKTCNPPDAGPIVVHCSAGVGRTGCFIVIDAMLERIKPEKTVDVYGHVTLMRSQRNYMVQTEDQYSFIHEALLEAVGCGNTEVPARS
Description: as §1, §2, §3, §4, §5, §6
The PTP Sigma cDNA was amplified from human brain single strand cDNA (Clontech RNA) using the following oligonucleotides: 5′oligo: 5′-[…]-3′ (SEQ ID NO: 12) 3′oligo: 5′-[…]-3′ (SEQ ID NO: 13) and subsequently ligated into pGex 6P-1 Eco RI/Xho I sites.

[1] = pNPP or FDP as substrate, 25° C., read-out: PTP IC50 Mu
[2] = pNPP or FDP as substrate, 25° C., read-out: PTP IC50 Beta
[3] = pNPP or FDP as substrate, 25° C., read-out: PTP IC50 SHP2
[4] = pNPP or FDP as substrate, 25° C., read-out: PTP IC50 Sigma

T1 sequence (P28827 831-1186 limits assumed): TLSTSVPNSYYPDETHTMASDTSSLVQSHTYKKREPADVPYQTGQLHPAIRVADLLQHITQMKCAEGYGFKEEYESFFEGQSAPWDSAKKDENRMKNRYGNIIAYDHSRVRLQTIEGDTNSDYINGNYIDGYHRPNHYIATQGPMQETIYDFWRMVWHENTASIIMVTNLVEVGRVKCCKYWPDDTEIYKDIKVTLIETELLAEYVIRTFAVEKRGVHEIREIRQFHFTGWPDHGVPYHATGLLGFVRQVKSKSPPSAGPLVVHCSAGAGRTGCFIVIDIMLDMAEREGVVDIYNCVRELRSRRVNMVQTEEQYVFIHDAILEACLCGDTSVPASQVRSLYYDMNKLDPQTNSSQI

Compound	IC50 (PTP MU; [1])	IC50 (PTP BETA; [2])	IC50 (PTP SHP2; [3])	IC50 (PTP SIGMA; [4])	IC50 (PTP MU; comparison of R groups, read-out: IC50 Mu)	IC50 (PTP BETA; comparison of R groups, read-out: IC50 Beta)	IC50 (PTP SHP2; comparison of R groups, read-out: IC50 SHP2)	IC50 (PTP SIGMA; comparison of R groups, read-out: IC50 Sigma)
1-(4-Aminophenoxy)-4-trifluoromethylsulfonamidophenoxy benzene [Example 72]	> 100 µM	22.7 µM	17 µM	41.1 µM	–	–	–	–
O=[N+]([O-])c1cc(S(=O)(=O)C(F)(F)F)ccc1OC1CCC(Oc2ccc(S(=O)(=O)C(F)(F)F)cc2[N+](=O)[O-])C1 (mixture of isomers) [Example 12, 1,3-Bis-(2-nitro-4-trifluoromethanesulfonyl-phenoxy)-cyclopentane]	> 100 µM	17.9 µM	79.8 µM	91.7 µM	–	–	–	–
CS(=O)(=O)Nc1ccc(Oc2ccc(Oc3ccc(NS(C)(=O)=O)cc3)cc2)cc1 [CH3SO2NH—]	–	–	–	–	> 100 µM	62.6 µM	33.6 µM	22 µM
O=S(=O)(c1ccc(COCc2ccc(S(=O)(=O)C(F)(F)F)cc2)cc1)C(F)(F)F [Example 1, Bis (4-trifluoromethylsulfonylbenzyl) ether]	> 100 µM	5.9 µM	2 µM	> 100 µM	–	–	–	–
O=S(=O)(c1ccc(COc2ccc(S(=O)(=O)C(F)(F)F)cc2)cc1)C(F)(F)F [Example 2, 4-Trifluoromethylsulfonylbenzyl 4-trifluoromethylsulfonylphenyl ether]	> 100 µM	3.5 µM	42.6 µM	30.5 µM	–	–	–	–
O=C(c1ccccc1)N(Cc1ccc(S(=O)(=O)C(F)(F)F)cc1)Cc1ccc(S(=O)(=O)C(F)(F)F)cc1 [Example 3, N,N-Bis(4-trifluoromethylsulfonylbenzyl)benzamide]	> 100 µM	17.2 µM	74.5 µM	42.6 µM	–	–	–	–
O=S(=O)(c1ccc(CCc2ccc(S(=O)(=O)C(F)(F)F)cc2)cc1)C(F)(F)F [Example 4, 1,2-Bis(4-trifluoromethylsulfonylphenyl)ethane]	> 100 µM	6.8 µM	> 100 µM	81.1 µM	–	–	–	–
O=C(NCc1ccc(S(=O)(=O)C(F)(F)F)cc1)c1ccc(S(=O)(=O)C(F)(F)F)cc1 [Example 5, N-(4-Trifluoromethylsulfonylbenzyl)-4-trifluoromethylsulfonylbenzamide]	> 100 µM	44.8 µM	> 100 µM	> 100 µM	–	–	–	–
O=C(NCc1ccc(S(=O)(=O)C(F)(F)F)cc1)c1ccccc1 [Example 6, N-(4-Trifluoromethylsulfonylbenzyl)benzamide]	> 100 µM	> 100 µM	> 100 µM	> 100 µM	–	–	–	–
O=[N+]([O-])c1cc(S(=O)(=O)C(F)(F)F)ccc1SSc1ccc(S(=O)(=O)C(F)(F)F)cc1[N+](=O)[O-] [Example 8, Bis-(2-nitro-4-trifluoromethylsulfonylphenyl) disulfide]	> 100 µM	26.5 µM	37 µM	27.7 µM	–	–	–	–
COC(=O)c1cc(Oc2ccc(S(=O)(=O)C(F)(F)F)cc2)cc(Oc2ccc(S(=O)(=O)C(F)(F)F)cc2)c1 [Example 9, 3,5-Bis-(4-trifluoromethanesulfonyl-phenoxy)-benzoic acid methyl ester]	> 100 µM	45.6 µM	> 100 µM	49.9 µM	–	–	–	–
COC(=O)Cc1cc(Oc2ccc(S(=O)(=O)C(F)(F)F)cc2[N+](=O)[O-])cc(Oc2ccc(S(=O)(=O)C(F)(F)F)cc2[N+](=O)[O-])c1 [Example 10, [3,5-Bis-(2-nitro-4-trifluoromethanesulfonyl-phenoxy)-phenyl]-acetic acid methyl ester]	> 100 µM	20.5 µM	> 100 µM	33.8 µM	–	–	–	–
COC(=O)c1cc(Oc2ccc(S(=O)(=O)C(F)(F)F)cc2[N+](=O)[O-])cc(Oc2ccc(S(=O)(=O)C(F)(F)F)cc2[N+](=O)[O-])c1 [Example 11, 3,5-Bis-(2-nitro-4-trifluoromethanesulfonyl-phenoxy)-benzoic acid methyl ester]	> 100 µM	11.2 µM	> 100 µM	24.1 µM	–	–	–	–
COC(=O)c1c(Oc2ccc(S(=O)(=O)C(F)(F)F)cc2[N+](=O)[O-])cc(C)cc1Oc1ccc(S(=O)(=O)C(F)(F)F)cc1[N+](=O)[O-] [Example 13, 4-Methyl-2,6-bis-(2-nitro-4-trifluoromethanesulfonyl-phenoxy)-benzoic acid methyl ester]	76 µM	15.1 µM	> 100 µM	84.5 µM	–	–	–	–
COC(=O)c1ccc(OCCOc2ccc(S(=O)(=O)C(F)(F)F)cc2[N+](=O)[O-])cc1 [Example 14, 4-[2-(2-nitro-4-trifluoromethanesulfonyl-phenoxy)-ethoxy]-benzoic acid methyl ester]	> 100 µM	13.4 µM	> 100 µM	6.75 µM	–	–	–	–
O=C(O)c1ccc(Oc2cccc(Oc3ccc(S(=O)(=O)C(F)(F)F)cc3[N+](=O)[O-])c2)cc1 [Example 15, 4-[3-(2-Nitro-4-trifluoromethanesulfonyl-phenoxy)-phenoxy]-benzoic acid]	15.5 µM	10.3 µM	10.7 µM	11.7 µM	–	–	–	–
COC(=O)c1cc(Oc2ccc(S(=O)(=O)C(F)(F)F)cc2[N+](=O)[O-])n(-c2cc(C(F)(F)F)cc(C(F)(F)F)c2)n1 [Example 16, 1-(3,5-Bis-trifluoromethyl-phenyl)-5-(2-nitro-4-trifluoromethanesulfonyl-phenoxy)-1H-pyrazole-3-carboxylic acid methyl ester]	> 100 µM	9.6 µM	> 100 µM	29.4 µM	–	–	–	–
